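GI50 marks 50% less growth. Definition used: TGI = concentration required for complete inhibition of growth.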
Assays:
Assay in all cases: inhibition of tumour cell growth, NCI panel, 384-well format
786-0 renal = test system: 786-0 renal
A498 renal = test system: A498 renal
A549 NSCLC = test system: A549 NSCLC
ACHN renal = test system: ACHN renal
BT-549 breast = test system: BT-549 breast
CAKI-1 renal = test system: CAKI-1 renal
CCRF-CEM leukemia = test system: CCRF-CEM leukemia
COLO 205 colon = test system: COLO 205 colon
DU-145 prostate = test system: DU-145 prostate
EKVX NSCLC = test system: EKVX NSCLC
HCC-2998 colon = test system: HCC-2998 colon
HCT-116 colon = test system: HCT-116 colon
HCT-15 colon = test system: HCT-15 colon
HL-60(TB) leukemia = test system: HL-60(TB) leukemia
HOP-62 NSCLC = test system: HOP-62 NSCLC
HOP-92 NSCLC = test system: HOP-92 NSCLC
HS 578T breast = test system: HS 578T breast
HT29 colon = test system: HT29 colon
IGROV1 ovarian = test system: IGROV1 ovarian
K-562 leukemia = test system: K-562 leukemia
KM12 colon = test system: KM12 colon
LOX IMVI melanoma = test system: LOX IMVI melanoma
M14 melanoma = test system: M14 melanoma
MALME-3M melanoma = test system: MALME-3M melanoma
MCF7 breast = test system: MCF7 breast
MDA-MB-435 melanoma = test system: MDA-MB-435 melanoma
MDA-MB-468 breast = test system: MDA-MB-468 breast
MOLT-4 leukemia = test system: MOLT-4 leukemia
NCI-H226 lung = test system: NCI-H226 lung
NCI-H23 lung = test system: NCI-H23 lung
NCI-H322M lung = test system: NCI-H322M lung
NCI-H460 NSCLC = test system: NCI-H460 NSCLC
NCI-H522 lung = test system: NCI-H522 lung
NCI/ADR-RES ovarian = test system: NCI/ADR-RES ovarian
OVCAR-3 ovarian = test system: OVCAR-3 ovarian
OVCAR-4 ovarian = test system: OVCAR-4 ovarian
OVCAR-8 ovarian = test system: OVCAR-8 ovarian
PC-3 prostate = test system: PC-3 prostate
RPMI-8226 leukemia = test system: RPMI-8226 leukemia
RXF 393 renal = test system: RXF 393 renal
SF-268 CNS = test system: SF-268 CNS
SF-295 CNS = test system: SF-295 CNS
SF-539 CNS = test system: SF-539 CNS
SK-MEL-2 melanoma = test system: SK-MEL-2 melanoma
SK-MEL-28 melanoma = test system: SK-MEL-28 melanoma
SK-MEL-5 melanoma = test system: SK-MEL-5 melanoma
SK-OV-3 ovarian = test system: SK-OV-3 ovarian
SN12C renal = test system: SN12C renal
SNB-19 CNS = test system: SNB-19 CNS
SNB-75 CNS = test system: SNB-75 CNS
SW-620 colon = test system: SW-620 colon
TK-10 renal = test system: TK-10 renal
U251 glioblastoma = test system: U251 glioblastoma
UACC-257 melanoma = test system: UACC-257 melanoma
UACC-62 melanoma = test system: UACC-62 melanoma

**Q.** How did the GI50 ([…]-0 renal) turn out when `CC(C)NC(=O)OCc1c(COC(=O)NC(C)C)c(-c2ccc(Cl)c(Cl)c2)n2c1SCC2` was run?
**A.** 4.31 µM

**Q.** And the TGI (786-0 renal)?
**A.** 15.8 µM

**Q.** And the GI50 (A498 renal)?
**A.** 0.386 µM

**Q.** And the TGI (A498 renal)?
**A.** 1.76 µM

**Q.** What about the GI50 (A549 NSCLC) of the same molecule?
**A.** 10.2 µM

**Q.** What about the TGI (A549 NSCLC) of the same molecule?
**A.** 23.9 µM

**Q.** What about the GI50 (ACHN renal) of the same molecule?
**A.** 2.31 µM

**Q.** And the TGI (ACHN renal)?
**A.** 7.85 µM

**Q.** And the GI50 (BT-549 breast)?
**A.** 3.92 µM

**Q.** What about the TGI (BT-549 breast) of the same molecule?
**A.** 15.3 µM

**Q.** And the GI50 (CAKI-1 renal)?
**A.** 1.48 µM

**Q.** And the TGI (CAKI-1 renal)?
**A.** 3.44 µM

**Q.** And the GI50 (CCRF-CEM leukemia)?
**A.** 2.07 µM

**Q.** What about the TGI (CCRF-CEM leukemia) of the same molecule?
**A.** 4.95 µM

**Q.** What about the GI50 (COLO 205 colon) of the same molecule?
**A.** 8.39 µM

**Q.** What about the TGI (COLO 205 colon) of the same molecule?
**A.** 21.7 µM

**Q.** What about the GI50 (DU-145 prostate) of the same molecule?
**A.** 5.54 µM

**Q.** And the TGI (DU-145 prostate)?
**A.** 20.7 µM

**Q.** And the GI50 (EKVX NSCLC)?
**A.** 13.1 µM

**Q.** What about the TGI (EKVX NSCLC) of the same molecule?
**A.** 26.7 µM

**Q.** What about the GI50 (HCC-2998 colon) of the same molecule?
**A.** 0.687 µM

**Q.** What about the TGI (HCC-2998 colon) of the same molecule?
**A.** 14.7 µM

**Q.** What about the GI50 (HCT-116 colon) of the same molecule?
**A.** 4 µM

**Q.** What about the TGI (HCT-116 colon) of the same molecule?
**A.** 19.8 µM

**Q.** And the GI50 (HCT-15 colon)?
**A.** 5.97 µM

**Q.** And the TGI (HCT-15 colon)?
**A.** 19.8 µM

**Q.** And the GI50 (HL-60(TB) leukemia)?
**A.** 1.27 µM

**Q.** And the TGI (HL-60(TB) leukemia)?
**A.** 2.58 µM

**Q.** And the GI50 (HOP-62 NSCLC)?
**A.** 1.89 µM

**Q.** And the TGI (HOP-62 NSCLC)?
**A.** 4.66 µM

**Q.** What about the GI50 (HOP-92 NSCLC) of the same molecule?
**A.** 2.58 µM

**Q.** What about the TGI (HOP-92 NSCLC) of the same molecule?
**A.** 11.4 µM

**Q.** What about the GI50 (HS 578T breast) of the same molecule?
**A.** 4.85 µM

**Q.** What about the TGI (HS 578T breast) of the same molecule?
**A.** 17.3 µM

**Q.** What about the GI50 (HT29 colon) of the same molecule?
**A.** 10.4 µM

**Q.** And the TGI (HT29 colon)?
**A.** 25 µM

**Q.** What about the GI50 (IGROV1 ovarian) of the same molecule?
**A.** 1.25 µM

**Q.** And the TGI (IGROV1 ovarian)?
**A.** 4.55 µM

**Q.** And the GI50 (K-562 leukemia)?
**A.** 10.3 µM

**Q.** What about the TGI (K-562 leukemia) of the same molecule?
**A.** 22.6 µM

**Q.** And the GI50 (KM12 colon)?
**A.** 7.21 µM

**Q.** What about the TGI (KM12 colon) of the same molecule?
**A.** 21.6 µM

**Q.** And the GI50 (LOX IMVI melanoma)?
**A.** 1.84 µM

**Q.** What about the TGI (LOX IMVI melanoma) of the same molecule?
**A.** 13.6 µM

**Q.** And the GI50 (M14 melanoma)?
**A.** 3.75 µM

**Q.** And the TGI (M14 melanoma)?
**A.** 14.1 µM

**Q.** What about the GI50 (MALME-3M melanoma) of the same molecule?
**A.** 5.06 µM

**Q.** And the TGI (MALME-3M melanoma)?
**A.** 17.8 µM

**Q.** What about the GI50 (MCF7 breast) of the same molecule?
**A.** 4.21 µM

**Q.** What about the TGI (MCF7 breast) of the same molecule?
**A.** 27 µM

**Q.** And the GI50 (MDA-MB-435 melanoma)?
**A.** 13 µM

**Q.** What about the TGI (MDA-MB-435 melanoma) of the same molecule?
**A.** 25.8 µM

**Q.** What about the GI50 (MDA-MB-468 breast) of the same molecule?
**A.** 0.0344 µM

**Q.** And the TGI (MDA-MB-468 breast)?
**A.** 0.936 µM

**Q.** What about the GI50 (MOLT-4 leukemia) of the same molecule?
**A.** 1.1 µM

**Q.** What about the TGI (MOLT-4 leukemia) of the same molecule?
**A.** 2.3 µM

**Q.** And the GI50 (NCI-H226 lung)?
**A.** 0.85 µM

**Q.** What about the TGI (NCI-H226 lung) of the same molecule?
**A.** 2.35 µM

**Q.** And the GI50 (NCI-H23 lung)?
**A.** 1.83 µM

**Q.** What about the TGI (NCI-H23 lung) of the same molecule?
**A.** 4.26 µM

**Q.** And the GI50 (NCI-H322M lung)?
**A.** 7.6 µM

**Q.** What about the TGI (NCI-H322M lung) of the same molecule?
**A.** 21.7 µM

**Q.** And the GI50 (NCI-H460 NSCLC)?
**A.** 2.56 µM

**Q.** What about the TGI (NCI-H460 NSCLC) of the same molecule?
**A.** 11.4 µM

**Q.** What about the GI50 (NCI-H522 lung) of the same molecule?
**A.** 2.09 µM

**Q.** What about the TGI (NCI-H522 lung) of the same molecule?
**A.** 13.8 µM

**Q.** What about the GI50 (NCI/ADR-RES ovarian) of the same molecule?
**A.** 3 µM

**Q.** What about the TGI (NCI/ADR-RES ovarian) of the same molecule?
**A.** 13.2 µM

**Q.** What about the GI50 (OVCAR-3 ovarian) of the same molecule?
**A.** 2.99 µM

**Q.** And the TGI (OVCAR-3 ovarian)?
**A.** 14.1 µM

**Q.** What about the GI50 (OVCAR-4 ovarian) of the same molecule?
**A.** 3.3 µM

**Q.** What about the TGI (OVCAR-4 ovarian) of the same molecule?
**A.** 17.5 µM

**Q.** What about the GI50 (OVCAR-8 ovarian) of the same molecule?
**A.** 5.97 µM

**Q.** What about the TGI (OVCAR-8 ovarian) of the same molecule?
**A.** 19.1 µM

**Q.** What about the GI50 (PC-3 prostate) of the same molecule?
**A.** 10.8 µM

**Q.** What about the TGI (PC-3 prostate) of the same molecule?
**A.** 25.5 µM

**Q.** What about the GI50 (RPMI-8226 leukemia) of the same molecule?
**A.** 1.79 µM

**Q.** And the TGI (RPMI-8226 leukemia)?
**A.** 5.03 µM

**Q.** And the GI50 (RXF 393 renal)?
**A.** 2.64 µM

**Q.** What about the TGI (RXF 393 renal) of the same molecule?
**A.** 10.5 µM

**Q.** And the GI50 (SF-268 CNS)?
**A.** 3.18 µM

**Q.** What about the TGI (SF-268 CNS) of the same molecule?
**A.** 10.3 µM

**Q.** And the GI50 (SF-295 CNS)?
**A.** 3.18 µM

**Q.** And the TGI (SF-295 CNS)?
**A.** 10.1 µM

**Q.** And the GI50 (SF-539 CNS)?
**A.** 5.16 µM

**Q.** What about the TGI (SF-539 CNS) of the same molecule?
**A.** 18.7 µM

**Q.** What about the GI50 (SK-MEL-2 melanoma) of the same molecule?
**A.** 1.83 µM

**Q.** And the TGI (SK-MEL-2 melanoma)?
**A.** 4.49 µM

**Q.** What about the GI50 (SK-MEL-28 melanoma) of the same molecule?
**A.** 12.7 µM

**Q.** And the TGI (SK-MEL-28 melanoma)?
**A.** 26.1 µM

**Q.** And the GI50 (SK-MEL-5 melanoma)?
**A.** 4.33 µM

**Q.** And the TGI (SK-MEL-5 melanoma)?
**A.** 17.8 µM

**Q.** And the GI50 (SK-OV-3 ovarian)?
**A.** 3.26 µM

**Q.** And the TGI (SK-OV-3 ovarian)?
**A.** 11.4 µM

**Q.** What about the GI50 (SN12C renal) of the same molecule?
**A.** 3.88 µM

**Q.** What about the TGI (SN12C renal) of the same molecule?
**A.** 14.1 µM

**Q.** What about the GI50 (SNB-19 CNS) of the same molecule?
**A.** 9.07 µM

**Q.** What about the TGI (SNB-19 CNS) of the same molecule?
**A.** 27.7 µM

**Q.** And the GI50 (SNB-75 CNS)?
**A.** 2.27 µM

**Q.** What about the TGI (SNB-75 CNS) of the same molecule?
**A.** 12.7 µM

**Q.** And the GI50 (SW-620 colon)?
**A.** 5.81 µM

**Q.** What about the TGI (SW-620 colon) of the same molecule?
**A.** 19.6 µM

**Q.** And the GI50 (TK-10 renal)?
**A.** 1.63 µM

**Q.** What about the TGI (TK-10 renal) of the same molecule?
**A.** 6.15 µM

**Q.** And the GI50 (U251 glioblastoma)?
**A.** 5.16 µM

**Q.** What about the TGI (U251 glioblastoma) of the same molecule?
**A.** 18.4 µM

**Q.** What about the GI50 (UACC-257 melanoma) of the same molecule?
**A.** 10.2 µM

**Q.** What about the TGI (UACC-257 melanoma) of the same molecule?
**A.** 22.4 µM

**Q.** And the GI50 (UACC-62 melanoma)?
**A.** 1.68 µM

**Q.** What about the TGI (UACC-62 melanoma) of the same molecule?
**A.** 4.98 µM

From PubChem BioAssay (NCI)
